From patent US20250163038A1, “CBL-B MODULATORS AND USES THEREOF” (Nimbus Clio, Inc., priority 2021, published 2025) come the findings set out here.

Test [1] concerns the target Recombinant human Cbl-b (aa 36-427) (Homo sapiens, UniProt Q13191). The test can be described thus: Cbl-b Biochemical Assay (TR-FRET). To be noted: read-out: TR-FRET hCbl-b IC50. On the technique in general: In TR-FRET formats the signal depends on donor and acceptor labels being close together.
Test [2] concerns Jurkat (clone E6-1) cells with NFAT luciferase reporter. The test can be described thus: Jurkat reporter assay (NFAT Luciferase). In kind it is cell-based. To be noted: Homo sapiens; Jurkat NFAT luciferase reporter cells, anti-CD3 stimulation, 6 hr; read-out: Jurkat NFAT EC50.
Test [3] addresses T1, Recombinant human c-Cbl (aa 47-435) (Homo sapiens, UniProt P22681).
T1 sequence (P22681 47-435): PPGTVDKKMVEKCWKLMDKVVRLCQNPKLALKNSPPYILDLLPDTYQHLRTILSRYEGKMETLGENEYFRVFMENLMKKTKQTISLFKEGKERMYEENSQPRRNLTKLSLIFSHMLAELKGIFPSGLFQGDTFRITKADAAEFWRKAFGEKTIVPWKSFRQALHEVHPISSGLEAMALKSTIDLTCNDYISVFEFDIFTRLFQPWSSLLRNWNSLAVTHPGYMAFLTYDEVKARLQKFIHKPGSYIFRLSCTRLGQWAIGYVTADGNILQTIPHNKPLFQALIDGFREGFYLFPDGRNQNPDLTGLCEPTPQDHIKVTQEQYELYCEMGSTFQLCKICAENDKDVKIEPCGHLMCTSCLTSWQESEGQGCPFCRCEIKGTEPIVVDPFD
The experiment in a line: c-Cbl Biochemical Assay (TR-FRET). Conditions: hc-Cbl Biochemical Assay (TR-FRET); read-out: TR-FRET hcCbl IC50.

Where a name gives a salt, the structure may show the parent alone.

Recombinant human Cbl-b (aa 36-427), sequence (Q13191 36-427): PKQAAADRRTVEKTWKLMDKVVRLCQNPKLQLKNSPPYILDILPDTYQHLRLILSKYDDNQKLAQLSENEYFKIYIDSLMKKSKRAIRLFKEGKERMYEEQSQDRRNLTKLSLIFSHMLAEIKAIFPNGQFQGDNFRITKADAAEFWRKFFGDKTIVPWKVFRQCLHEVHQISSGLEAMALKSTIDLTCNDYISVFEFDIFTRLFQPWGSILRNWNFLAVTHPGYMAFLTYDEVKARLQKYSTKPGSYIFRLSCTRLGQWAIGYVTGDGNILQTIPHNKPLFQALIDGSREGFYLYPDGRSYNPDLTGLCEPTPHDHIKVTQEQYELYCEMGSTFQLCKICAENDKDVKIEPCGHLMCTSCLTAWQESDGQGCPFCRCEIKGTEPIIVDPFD

What is called IC50 is the concentration that inhibits the measured activity by half. The EC50 is the concentration giving half of the maximal effect. As for `Cn1cnnc1-c1cc(F)ccc1-c1cccc(-c2nc3cc(CNS(C)(=O)=O)cc(C(F)(F)F)c3o2)c1` [EC-1, N-((2-(4′-Fluoro-2′-(4-methyl-4H-1,2,4-triazol-3-yl)-[1,1′-biphenyl]-3-yl)-7-(trifluoromethyl)benzo[d]oxazol-5-yl)methyl)methanesulfonamide], the results for the concentration for half-maximal inhibition (IC50) in test [1] and in test [3] were under 0.2 µM and 0.2 to 1 µM, respectively. Moreover, the EC50 in test [2] lay in the range of 1 to 10 µM.

In the case of `Cn1cnnc1-c1cc(F)ccc1-c1cccc(-c2nc3cc(CN[C@@H]4CCC[C@@H]4O)cc(F)c3o2)c1` [ED-7, (1S,2R)-2-(((7-Fluoro-2-(4′-fluoro-2′-(4-methyl-4H-1,2,4-triazol-3-yl)-[1,1′-biphenyl]-3-yl)benzo[d]oxazol-5-yl)methyl)amino)cyclopentan-1-ol], the IC50 in test [1] and in test [3] was under 0.2 µM throughout. For the same compound, the EC50 in test [2] is under 0.2 µM.

Consider `COCCCNCc1cc(C(F)(F)F)c2oc(-c3cccc(-c4ccc(F)cc4-c4nncn4C)c3)nc2c1` [EE-2, N-((2-(4′-Fluoro-2′-(4-methyl-4H-1,2,4-triazol-3-yl)-[1,1′-biphenyl]-3-yl)-7-(trifluoromethyl)benzo[d]oxazol-5-yl)methyl)-3-methoxypropan-1-amine], for which the IC50 in test [1] and in test [3] was under 0.2 µM throughout. Further, the EC50 in test [2] was under 0.2 µM.

Turning to `CC(NCC1(O)CCC1)c1cc(C(F)(F)F)c2oc(-c3cccc(-c4ccc(F)cc4-c4nncn4C)c3)nc2c1` (stereo not drawn) [EF-1, 1-(((1-(2-(4′-Fluoro-2′-(4-methyl-4H-1,2,4-triazol-3-yl)-[1,1′-biphenyl]-3-yl)-7-(trifluoromethyl)benzo[d]oxazol-5-yl)ethyl)amino)methyl)cyclobutan-1-ol, formate], the IC50 in test [1] and in test [3] was under 0.2 µM in each case. Besides, the EC50 in test [2] was under 0.2 µM.

For `Cn1cnnc1-c1cc(F)ccc1-c1cccc(-c2nc3cc(CN4CO[C@H]5CCC[C@H]54)cc(C(F)(F)F)c3o2)c1` [EH-1, 2-(4′-Fluoro-2′-(4-methyl-4H-1,2,4-triazol-3-yl)-[1,1′-biphenyl]-3-yl)-5-(((3aR,6aS)-tetrahydro-2H-cyclopenta[d]oxazol-3(3aH)-yl)methyl)-7-(trifluoromethyl)benzo[d]oxazole], the IC50 in test [1] and in test [3] was under 0.2 µM each time. Besides, the EC50 in test [2] is under 0.2 µM.

With `CN(C)C(=O)CNCc1cc(C(F)(F)F)c2oc(-c3cccc(-c4ccc(F)cc4-c4nncn4C)c3)nc2c1` [EI-4, 2-(((2-(4′-Fluoro-2′-(4-methyl-4H-1,2,4-triazol-3-yl)-[1,1′-biphenyl]-3-yl)-7-(trifluoromethyl)benzo[d]oxazol-5-yl)methyl)amino)-N,N-dimethylacetamide], the IC50 was under 0.2 µM in test [1] and 0.2 to 1 µM in test [3]. In test [2], the EC50 lay in the range of 0.2 to 1 µM.

Regarding `COC[C@H](C)NCc1cc(C(F)(F)F)c2oc(-c3cccc(-c4ccc(F)cc4-c4nncn4C)c3)nc2c1` [EJ-2, (S)—N-((2-(4′-Fluoro-2′-(4-methyl-4H-1,2,4-triazol-3-yl)-[1,1′-biphenyl]-3-yl)-7-(trifluoromethyl)benzo[d]oxazol-5-yl)methyl)-1-methoxypropan-2-amine], the 50% inhibitory concentration (IC50) in test [1] and in test [3] was under 0.2 µM in each case. Moreover, the EC50 in test [2] is under 0.2 µM.

`Cn1cnnc1-c1cc(F)ccc1-c1cccc(-c2nc3ccc(CN[C@@H]4CCC[C@@H]4O)cc3s2)c1` [EK-5, (1S,2R)-2-(((2-(4′-Fluoro-2′-(4-methyl-4H-1,2,4-triazol-3-yl)-[1,1′-biphenyl]-3-yl)benzo[d]thiazol-6-yl)methyl)amino)cyclopentan-1-ol]: the IC50 in test [1] and in test [3] was 1 to 10 µM each time. Moreover, the EC50 in test [2] lay within 1 to 10 µM.

In the case of `COCCNCc1cc(OC)c2oc(-c3cccc(-c4ccc(F)cc4-c4nncn4C)c3)nc2c1` [EL-1, N-((2-(4′-Fluoro-2′-(4-methyl-4H-1,2,4-triazol-3-yl)-[1,1′-biphenyl]-3-yl)-7-methoxybenzo[d]oxazol-5-yl)methyl)-2-methoxyethan-1-amine], the IC50 in test [1] and in test [3] was under 0.2 µM in each case. Also, the EC50 in test [2] lay within 0.2 to 1 µM.

Take `Cn1cnnc1-c1cc(F)ccc1-c1cccc(-c2nc3cc(CNCC4CCC4)cc(C(F)(F)F)c3o2)c1` [EM-2, 1-Cyclobutyl-N-((2-(4′-fluoro-2′-(4-methyl-4H-1,2,4-triazol-3-yl)-[1,1′-biphenyl]-3-yl)-7-(trifluoromethyl)benzo[d]oxazol-5-yl)methyl)methanamine]: the IC50 in test [1] and in test [3] was under 0.2 µM throughout. Also, the EC50 in test [2] was under 0.2 µM.

For the compound `COC[C@@H](C)NCc1cc(C(F)(F)F)c2oc(-c3cccc(-c4ccc(F)cc4-c4nncn4C)c3)nc2c1` [EN-2, (R)—N-((2-(4′-Fluoro-2′-(4-methyl-4H-1,2,4-triazol-3-yl)-[1,1′-biphenyl]-3-yl)-7-(trifluoromethyl)benzo[d]oxazol-5-yl)methyl)-1-methoxypropan-2-amine], the IC50 was under 0.2 µM in test [1] and 0.2 to 1 µM in test [3]. Besides, the half-maximal effective concentration (EC50) in test [2] is 0.2 to 1 µM.

As to `COCC(C)(C)NCc1cc(C(F)(F)F)c2oc(-c3cccc(-c4ccc(F)cc4-c4nncn4C)c3)nc2c1` [EO-2, N-((2-(4′-Fluoro-2′-(4-methyl-4H-1,2,4-triazol-3-yl)-[1,1′-biphenyl]-3-yl)-7-(trifluoromethyl)benzo[d]oxazol-5-yl)methyl)-1-methoxy-2-methylpropan-2-amine], the IC50 in test [1] is under 0.2 µM; in test [3] it was 0.2 to 1 µM. Moreover, in test [2], the EC50 lay in the range of 1 to 10 µM.

With `CC(C)NCc1cc(C(F)(F)F)c2oc(-c3cccc(-c4ccc(F)cc4-c4nncn4C)c3)nc2c1` [EP-2, N-((2-(4′-Fluoro-2′-(4-methyl-4H-1,2,4-triazol-3-yl)-[1,1′-biphenyl]-3-yl)-7-(trifluoromethyl)benzo[d]oxazol-5-yl)methyl)propan-2-amine], the IC50 is under 0.2 µM in test [1] and 0.2 to 1 µM in test [3]. Besides, the EC50 in test [2] fell in the range of 0.2 to 1 µM.

Turning to `Cn1cnnc1-c1cc(F)ccc1-c1cccc(-c2nc3cc(CO)cc(Br)c3o2)c1` [EQ-4, (7-Bromo-2-(4′-fluoro-2′-(4-methyl-4H-1,2,4-triazol-3-yl)-[1,1′-biphenyl]-3-yl)benzo[d]oxazol-5-yl)methanol], the IC50 in test [1] and in test [3] was 0.2 to 1 µM in each case. Further, in test [2], the EC50 lay in the range of 1 to 10 µM.

As to `Cn1cnnc1-c1cc(F)ccc1-c1cccc(-c2nc3cc(CN[C@@H]4CCC[C@@H]4O)cc(Br)c3o2)c1` [ER-2, (1S,2R)-2-(((7-Bromo-2-(4′-fluoro-2′-(4-methyl-4H-1,2,4-triazol-3-yl)-[1,1′-biphenyl]-3-yl)benzo[d]oxazol-5-yl)methyl)amino)cyclopentan-1-ol], the IC50 in test [1] and in test [3] was under 0.2 µM in each case. In addition, the EC50 in test [2] was under 0.2 µM.

As for `Cn1cnnc1-c1cc(F)ccc1-c1cccc(-c2nc3cc(CO)cc(C4CC4)c3o2)c1` [ES-4, (7-Cyclopropyl-2-(4′-fluoro-2′-(4-methyl-4H-1,2,4-triazol-3-yl)-[1,1′-biphenyl]-3-yl)benzo[d]oxazol-5-yl)methanol], the results for the IC50 in test [1] and in test [3] were under 0.2 µM and 0.2 to 1 µM, respectively. Besides, the EC50 in test [2] lay in the range of 1 to 10 µM.
